Laboratory results reported in patent US11213517B2, “Pharmaceutical combination comprising a T-type calcium channel blocker” (IDORSIA PHARMACEUTICALS LTD, priority 2016, dated 2022).
Where “and” joins values, the source holds several entries; their conditions need not be identical. Equal values may be shown once. Read-outs that look alike come from different tables or passages of the source.

How the values were obtained:
[1] = tested on: audiogenic seizure-sensitive juvenile DBA/2J mice; test: Audiogenic seizure-sensitive juvenile DBA/2J mouse model of generalized tonic-clonic seizures; assay type: in vivo; set-up: key: 0 none, 1 wild running, 2 clonus, 3 hind-limb tonic extension; settings: oral gavage, mean ± SEM
From the text: Audiogenic Seizure-Sensitive Juvenile DBA/2J Mouse Model of Generalized Tonic-Clonic Seizures
The inbred DBA/2J mouse strain carries an increased general susceptibility for acute generalized convulsive seizures induced by either pharmacological, electrical or, as juvenile, auditory stimuli. At the age of 17 to 28 days (juvenile), they show tonic-clonic convulsions when exposed to a loud tone.
Male juvenile DBA/2J mice (22-24 days old, body weight between 6.6 and 14.5 grams) were used. Each mouse was placed individually in the exposure chamber, an hemispheric acrylic glass dome (diameter: 50 cm) within a sound-attenuated box. After 60 seconds of habituation, an auditory stimulus of mixed frequency tone (15-20 kHz at 110 dB) was played from a speaker placed on the top center of the dome.
The sound-attenuated box was equipped with lights and a camera system in order to observe and record the behavioral seizure response classified as following: • stage 0, no response • stage 1, wild running • stage 2, clonus • stage 3, tonic extension of the hind limbs.
(§1) Different combination efficacy experiments are performed. […] Each experiment consists of four treatment groups: • 1. Vehicle (10% Polyethylene glycol400 (PEG400)/90% methylcellulose (0.5% in water; MC0.5%)), 3 h before exposure to the auditory stimulus+vehicle, 1 h before exposure to the auditory stimulus; • 2. COMPOUND 1 (in 10% PEG400/90% MC0.5%), 3 h before exposure to the auditory stimulus+vehicle, 1 h before exposure to the auditory stimulus; • 3. Vehicle, 3 h before exposure to the auditory stimulus+AED (in 10% PEG400/90% MC0.5%), 1 h before exposure to the auditory stimulus; and • 4. COMPOUND 1 (in 10% PEG400/90% MC0.5%), 3 h before exposure to the auditory stimulus+AED (in 10% PEG400/90% MC0.5%), 1 h before exposure to the auditory stimulus.

[2] = Plasma and brain concentrations of drugs at the end of the audiogenic seizure experiment (LC-MS); assay type: in vivo, mouse; settings: for concentration at 1 h: DBA/2J, mouse, oral; for concentration at 1 h / Brain concentration total: analyte VPA, oral gavage, mean ± SEM
Experimental: Briefly, blood was sampled from the vena cava caudalis with a syringe pre-filled with EDTA (ethylenediamine tetraacetic acid) as anticoagulant and centrifuged to yield plasma (for 10 minutes, at 4° C. and 5000 rpm (rounds per minute)). Brain was sampled and homogenized into one volume of cold phosphate buffer (pH 7.4). Following extraction with methanol, concentrations of the compound in plasma and brain were determined using liquid chromatography coupled to mass spectrometry.
as §1

[3] = vehicle 3 h + VPA 100 mg/kg 1 h before stimulus

## CCCC(CCC)C(=O)O [VPA, 2-propylpentanoic acid]
[1]; vehicle 3 h + VPA 30 mg/kg 1 h before stimulus
  Seizure stage (maximal seizure stage observed during exposure to auditory stimulus): 2.9 ± 0.1
[1]; [3]
  Seizure stage (maximal seizure stage observed during exposure to auditory stimulus): 2.7 ± 0.2 and 2.8 ± 0.2
[1]; vehicle 3 h + VPA 100 mg/kg 1 h before stimulus, listed as valproic acid
  Seizure stage (maximal seizure stage observed during exposure to auditory stimulus): 3
[2]; COMPOUND 1 and valproic acid, juvenile DBA/2J mice
  plasma and brain concentrations after administration of the compounds alone or in combination: similar
[2]; brain, 30 mg/kg, vehicle 3 h + VPA 30 mg/kg 1 h before stimulus, read-out: Brain concentration total
  concentration at 1 h: 1260 ± 399 ng/g
[2]; brain, 100 mg/kg, vehicle 3 h + VPA 100 mg/kg 1 h before stimulus, read-out: Brain concentration total
  concentration at 1 h: 10100 ± 2040 ng/g
[2]; brain, 200 mg/kg, vehicle 3 h + VPA 200 mg/kg 1 h before stimulus, read-out: Brain concentration total
  concentration at 1 h: 44200 ± 4090 ng/g
[2]; brain, COMPOUND 1 10 mg/kg 3 h + VPA 100 mg/kg 1 h before stimulus, read-out: Brain concentration total
  concentration at 1 h: 14600 ± 2910 ng/g
[2]; brain, COMPOUND 1 10 mg/kg 3 h + VPA 200 mg/kg 1 h before stimulus, read-out: Brain concentration total
  concentration at 1 h: 34700 ± 4440 ng/g
[2]; brain, COMPOUND 1 30 mg/kg 3 h + VPA 30 mg/kg 1 h before stimulus, read-out: Brain concentration total
  concentration at 1 h: 1010 ± 117 ng/g
[2]; brain, COMPOUND 1 30 mg/kg 3 h + VPA 100 mg/kg 1 h before stimulus, read-out: Brain concentration total
  concentration at 1 h: 5950 ± 946 ng/g
[2]; brain, COMPOUND 1 30 mg/kg 3 h + VPA 200 mg/kg 1 h before stimulus, read-out: Brain concentration total
  concentration at 1 h: 27000 ± 6540 ng/g
[2]; plasma, 30 mg/kg, vehicle 3 h + VPA 30 mg/kg 1 h before stimulus, read-out: Plasma concentration total
  concentration at 1 h: 23 ± 3.61 µg/mL
[2]; plasma, 100 mg/kg, vehicle 3 h + VPA 100 mg/kg 1 h before stimulus, read-out: Plasma concentration total
  concentration at 1 h: 53.7 ± 4.04 µg/mL
[2]; plasma, 200 mg/kg, vehicle 3 h + VPA 200 mg/kg 1 h before stimulus, read-out: Plasma concentration total
  concentration at 1 h: 133 ± 10.7 µg/mL
[2]; plasma, COMPOUND 1 10 mg/kg 3 h + VPA 100 mg/kg 1 h before stimulus, read-out: Plasma concentration total
  concentration at 1 h: 57.3 ± 3.76 µg/mL
[2]; plasma, COMPOUND 1 10 mg/kg 3 h + VPA 200 mg/kg 1 h before stimulus, read-out: Plasma concentration total
  concentration at 1 h: 123 ± 11.7 µg/mL
[2]; plasma, COMPOUND 1 30 mg/kg 3 h + VPA 30 mg/kg 1 h before stimulus, read-out: Plasma concentration total
  concentration at 1 h: 19.9 ± 1.65 µg/mL
[2]; plasma, COMPOUND 1 30 mg/kg 3 h + VPA 100 mg/kg 1 h before stimulus, read-out: Plasma concentration total
  concentration at 1 h: 63.4 ± 3.21 µg/mL
[2]; plasma, COMPOUND 1 30 mg/kg 3 h + VPA 200 mg/kg 1 h before stimulus, read-out: Plasma concentration total
  concentration at 1 h: 110 ± 11.4 µg/mL
[2]; [3]
  Brain concentration total: 9278 ± 2535 ng/g
[2]; vehicle 3 h + VPA 200 mg/kg 1 h before stimulus
  Brain concentration total: 24746 ± 3564 ng/g
